Values after ≈ are worked out from the molar mass of the structure shown.
Columns and labels:
[1] = Lyophilization solubility of the compound in phosphate buffer at pH 6.5 incubated for 1 hr under stirring condition and 2 hrs under shaking condition by HPLC-UV analysis; type: physicochemical
[2] = Metabolic stability in human liver microsomes assessed as clearance at 1 uM preincubated for 10 mins and measured upto 30 mins in presence of NADPH generating system by LC-MS/MS analysis; type: ADME, Microsome; settings: time < 40 min
[3] = Cytotoxicity against human HepDE19 cells assessed as reduction in cell viability measured after 5 days by CCK-8 method; type: functional; settings: HepDE19, 120 h, time 5 day
[4] = Selectivity index, ratio of CC50 for human HepDE19 cells assessed as reduction in cell viability to EC50 for HBV infected in human HepG2.2.15 cells assessed as reduction in HBV DNA replication; type: toxicity, cell-based; settings: HBV-infected HepG2.2.15 cells (EC50)
[5] = Metabolic stability in mouse liver microsomes assessed as clearance at 1 uM preincubated for 10 mins and measured upto 30 mins in presence of NADPH generating system by LC-MS/MS analysis; type: ADME, Microsome; settings: time < 40 min
Hepatitis B virus = assay: Antiviral activity against HBV infected in human HepG2.2.15 cells assessed as reduction in HBV DNA replication measured after 5 days by qPCR analysis; type: functional, organism-based; settings: HepG2.2.15, 120 h

| SMILES | solubility at 3 h [1] [µg/mL] | CLhep predicted at 1 µM [2] [mL/min/kg] | CC50 [3] [nM] | selectivity ratio [4] | CLhep predicted at 1 µM [5] [mL/min/kg] | EC50 (Hepatitis B virus) [nM] |
| --- | --- | --- | --- | --- | --- | --- |
| O=C(Nc1ccccc1)N1CCn2ncc(-c3ccc(F)cc3)c2C1 | 3 (≈ 8.92 µM) | 17 | 66000 | 204 | 76 | 323 |
| O=C(Nc1cccnc1)N1CCn2ncc(-c3ccc(F)cc3)c2C1 | 98 (≈ 290 µM) | 6 | > 100000 | > 33 | 49 | 3030 |
| O=C(Nc1ccccc1)N1CCc2[nH]nc(-c3ccc(F)cc3)c2C1 | 5 (≈ 14.9 µM) | 21 | 59000 | 156 | 63 | 377 |
| O=C(Nc1ccc(F)c(Cl)c1)N1CCn2ncc(-c3ccc(F)cc3F)c2C1 | < 1 | 17 | 42000 | 1180 | 66 | 36 |
| O=C(Nc1ccccc1)N1CCn2cnc(-c3ccc(F)cc3)c2C1 | < 1 | 14 | > 100000 | > 349 | 76 | 286 |
| O=C(Nc1cc(F)c(F)c(F)c1)N1CCn2ncc(N3CCCC3=O)c2C1 | 150 (≈ 395 µM) | 6.2 | 26000 | 101 | 51 | 252 |
| O=C(Nc1ccc(F)c(Cl)c1)N1CCn2ncc(NC3CCCC3)c2C1 | < 1 | 19 | > 100000 | > 43 | 76 | 2300 |
| O=C(Nc1ccc(F)c(Cl)c1)N1CCn2ncc(-c3ccccc3F)c2C1 | < 1 | 19 | 16000 | 476 | 74 | 33 |
| O=C(Nc1ccc(F)c(Cl)c1)N1CCn2ncc(N3CCOCC3)c2C1 | 170 (≈ 448 µM) | 7.2 | > 100000 | > 376 | 34 | 266 |
| O=C(Nc1cccc(Cl)c1)N1CCn2ncc(-c3ccc(F)cc3)c2C1 | < 1 | 18 | 87000 | 284 | 71 | 308 |
| O=C(Nc1ccc(F)c(Cl)c1)N1CCn2ncc(-c3ncc(F)cn3)c2C1 | 6 (≈ 15.4 µM) | 14 | 32000 | 250 | 69 | 128 |
| C[C@@H]1[C@H](C)N(C(=O)Nc2cc(F)c(F)c(F)c2)Cc2c(N3CCCC3=O)cnn21 | 515 (≈ 1260 µM) | 8.7 | > 100000 | > 2500 | 45 | 40 |
| O=C(Nc1ccccc1)N1CCn2nnc(-c3ccc(F)cc3)c2C1 | 32 (≈ 94.9 µM) | 14 | > 100000 | > 243 | 87 | 411 |
| O=C(Nc1ccc(F)c(Cl)c1)N1CCn2ncc(N3CCOCC3=O)c2C1 | 158 (≈ 401 µM) | 6.2 | > 100000 | > 645 | 20 | 155 |
| O=C(Nc1ccc(F)c(Cl)c1)N1CCn2ncc(N3CCCC3=O)c2C1 | 160 (≈ 423 µM) | 7.8 | > 100000 | > 1930 | 65 | 52 |
| O=C(Nc1ccc(F)c(Cl)c1)N1CCn2ncc(N3CCCC3)c2C1 | 134 (≈ 368 µM) | 16 | 97000 | 440 | 79 | 220 |

Reference: ChEMBL document CHEMBL5370611, “Discovery of 4,5,6,7-Tetrahydropyrazolo[1.5-a]pyrizine Derivatives as Core Protein Allosteric Modulators (CpAMs) for the Inhibition of Hepatitis B Virus” (J Med Chem, 2023)
